US10273233B2, “Inhibitors of influenza viruses replication” (Vertex Pharmaceuticals Incorporated, priority 2015, dated 2019)

How the values were obtained:
A/Virginia/ATCC2/2009 = experiment: 3-day CP assay in MDCK cells; assay type: cell-based; settings: Influenza A virus
A/Mexico/4108/2009 = experiment: 3-day CP assay in MDCK cells; assay type: cell-based; settings: Influenza A virus
A/New Jersey/8/76 = experiment: microbe, parasite or virus in culture; assay type: cell-based; settings: Influenza A virus, MDCK
A/NWS/33 = experiment: 3-day CP assay in MDCK cells; assay type: cell-based, influenza A; settings: Influenza A virus, MDCK
A/Denver/1/57 = experiment: 3-day CP assay in MDCK cells; assay type: cell-based; settings: Influenza A virus
A/Texas/48/2009 = experiment: 3-day CP assay in MDCK cells; assay type: cell-based; settings: Influenza A virus
A/Fukushima/141/2006 = experiment: 3-day CP assay in MDCK cells; assay type: cell-based; settings: Influenza A virus
A/Virginia/ATCC3/2009 = experiment: 3-day CP assay in MDCK cells; assay type: cell-based; settings: Influenza A virus
A/Santiago/7981/2006 = experiment: 3-day CP assay in MDCK cells; assay type: cell-based; settings: Influenza A virus
A/Weiss/43 = experiment: 3-day CP assay in MDCK cells; assay type: cell-based; settings: Influenza A virus
[1] = test system: A/California/07/2009 NYMC, X-179A; experiment: 3-day CP assay in MDCK cells; assay type: cell-based; settings: Influenza A virus
A/Hawaii/2/2006 = experiment: 3-day CP assay in MDCK cells; assay type: cell-based; settings: Influenza A virus
A/Swine/1976/31 = experiment: microbe, parasite or virus in culture; assay type: cell-based; settings: Influenza A virus, MDCK, in Sus scrofa
A/Uruguay/716/2007 = experiment: 3-day CP assay in MDCK cells; assay type: cell-based; settings: Influenza A virus
A/Mal/302/54 = experiment: 3-day CP assay in MDCK cells; assay type: cell-based; settings: Influenza A virus
B/Memphis/20/1996--071 = experiment: 3-day CP assay in MDCK cells; assay type: cell-based; settings: Influenza B virus
B/Mass/3/66 = experiment: 3-day CP assay in MDCK cells; assay type: cell-based; settings: Influenza B virus
A/FM/1/47 = experiment: 3-day CP assay in MDCK cells; assay type: cell-based; settings: Influenza A virus
A/New York/18/2009 = experiment: 3-day CP assay in MDCK cells; assay type: cell-based; settings: Influenza A virus
A/California/07/2009 = experiment: 3-day CP assay in MDCK cells; assay type: cell-based; settings: Influenza A virus, MDCK; A/California/07/2009
A/Chelyabinsk/1/200 = experiment: 3-day CP assay in MDCK cells; assay type: cell-based; settings: Influenza A virus
A/Henan/Jinshui/147/2007 = experiment: 3-day CP assay in MDCK cells; assay type: cell-based; settings: Influenza A virus
A/Nebraska/1/2006 = experiment: 3-day CP assay in MDCK cells; assay type: cell-based; settings: Influenza A virus
B/Lee/40 = experiment: 3-day CP assay in MDCK cells; assay type: cell-based; settings: Influenza B virus
A/Hong Kong/8/68 = experiment: 3-day CP assay in MDCK cells; assay type: cell-based; settings: Influenza A virus
A/Puerto Rico/8/34 = experiment: 3-day CP assay in MDCK cells; assay type: cell-based; settings: Influenza A virus
A/Georgia/17/2006 = experiment: 3-day CP assay in MDCK cells; assay type: cell-based; settings: Influenza A virus
A/Missouri/3/2006 = experiment: 3-day CP assay in MDCK cells; assay type: cell-based; settings: Influenza A virus
A/Texas/12/2007 = experiment: 3-day CP assay in MDCK cells; assay type: cell-based; settings: Influenza A virus
A/Wisconsin/67/2005 = experiment: 3-day CP assay in MDCK cells; assay type: cell-based; settings: Influenza A virus
B/Memphis/20/1996--070 = experiment: 3-day CP assay in MDCK cells; assay type: cell-based; settings: Influenza B virus
A/Georgia/20/2006 = experiment: 3-day CP assay in MDCK cells; assay type: cell-based, influenza A; settings: Influenza A virus, MDCK
A/Swine/Iowa/15/30 = experiment: microbe, parasite or virus in culture; assay type: cell-based, influenza A; settings: Influenza A virus, MDCK, in Sus scrofa
A/Victoria/3/75 = experiment: 3-day CP assay in MDCK cells; assay type: cell-based; settings: Influenza A virus
A/Cambodia0371/2007 = experiment: 3-day CP assay in MDCK cells; assay type: cell-based; settings: Influenza A virus
A/WS/33 = experiment: 3-day CP assay in MDCK cells; assay type: cell-based; settings: Influenza A virus
A/Port Chalmers/1/73 = experiment: 3-day CP assay in MDCK cells; assay type: cell-based; settings: Influenza A virus
A/Virginia/01/2006 = experiment: 3-day CP assay in MDCK cells; assay type: cell-based; settings: Influenza A virus
B/Russia/69 = experiment: 3-day CP assay in MDCK cells; assay type: cell-based; settings: Influenza B virus
A/Aichi/2/68 = experiment: 3-day CP assay in MDCK cells; assay type: cell-based; settings: Influenza A virus
A/South Dakota/6/2007 = experiment: 3-day CP assay in MDCK cells; assay type: cell-based; settings: Influenza A virus
A/St. Petersburg8/2006 = experiment: 3-day CP assay in MDCK cells; assay type: cell-based; settings: Influenza A virus
A/Equine/Miami/63 = experiment: microbe, parasite or virus in culture; assay type: cell-based; settings: Influenza A virus, MDCK

## NC(=O)c1nc(F)c[nH]c1=O [Compound T-705, favipiravir]
A/Virginia/ATCC2/2009
  EC50: 5.3 µM
A/Mexico/4108/2009
  EC50: > 10 µM
A/New Jersey/8/76
  EC50: 2.1 µM
A/NWS/33
  EC50: 7.6 µM
A/Denver/1/57
  EC50: 1.1 µM
A/Texas/48/2009
  EC50: 9.3 µM
A/Fukushima/141/2006
  EC50: 1.9 µM
A/Virginia/ATCC3/2009
  EC50: 7.7 µM
A/Santiago/7981/2006
  EC50: 0.86 µM
A/Weiss/43
  EC50: 1.5 µM
[1]
  EC50: > 10 µM
A/Hawaii/2/2006
  EC50: 5.5 µM
A/Swine/1976/31
  EC50: > 10 µM
A/Uruguay/716/2007
  EC50: 4.5 µM
A/Mal/302/54
  EC50: 3.4 µM
B/Memphis/20/1996--071
  EC50: > 10 µM
B/Mass/3/66
  EC50: 3.4 µM
A/FM/1/47
  EC50: 4.5 µM
A/New York/18/2009
  EC50: 1.3 µM
A/California/07/2009
  EC50: 2 µM
A/Chelyabinsk/1/200
  EC50: 6.5 µM
A/Henan/Jinshui/147/2007
  EC50: 6.1 µM
A/Nebraska/1/2006
  EC50: 6.4 µM
B/Lee/40
  EC50: 6.5 µM
A/Hong Kong/8/68
  EC50: 4.5 µM
A/Puerto Rico/8/34
  EC50: > 10 µM
A/Georgia/17/2006
  EC50: 9.6 µM
A/Missouri/3/2006
  EC50: 5.3 µM
A/Texas/12/2007
  EC50: 7.1 µM
A/Wisconsin/67/2005
  EC50: > 10 µM
B/Memphis/20/1996--070
  EC50: 2.4 µM
A/Georgia/20/2006
  EC50: 6.3 µM
A/Swine/Iowa/15/30
  EC50: > 10 µM
A/Victoria/3/75
  EC50: > 10 µM
A/Cambodia0371/2007
  EC50: 6.5 µM
A/WS/33
  EC50: > 10 µM
A/Port Chalmers/1/73
  EC50: 1.9 µM
A/Virginia/01/2006
  EC50: 3.1 µM
B/Russia/69
  EC50: 0.29 µM
A/Aichi/2/68
  EC50: > 10 µM
A/South Dakota/6/2007
  EC50: 7.1 µM
A/St. Petersburg8/2006
  EC50: > 10 µM
A/Equine/Miami/63
  EC50: > 10 µM

## CC(=O)N[C@H]1[C@H]([C@H](O)[C@H](O)CO)OC(C(=O)O)=C[C@@H]1N=C(N)N [Zanamivir]
A/Virginia/ATCC2/2009
  EC50: > 10 µM
A/Mexico/4108/2009
  EC50: 3.8 µM
A/New Jersey/8/76
  EC50: 6.2 µM
A/NWS/33
  EC50: > 10 µM
A/Denver/1/57
  EC50: > 10 µM
A/Texas/48/2009
  EC50: 1.7 µM
A/Fukushima/141/2006
  EC50: 0.27 µM
A/Virginia/ATCC3/2009
  EC50: > 10 µM
A/Santiago/7981/2006
  EC50: 4 µM
A/Weiss/43
  EC50: 0.08 µM
[1]
  EC50: 5.6 µM
A/Hawaii/2/2006
  EC50: > 10 µM
A/Swine/1976/31
  EC50: 0.25 µM
A/Uruguay/716/2007
  EC50: 4.7 µM
A/Mal/302/54
  EC50: 0.28 µM
B/Memphis/20/1996--071
  EC50: 6 µM
A/FM/1/47
  EC50: 2.6 µM
A/New York/18/2009
  EC50: 0.31 µM
A/California/07/2009
  EC50: > 10 µM
A/Chelyabinsk/1/200
  EC50: 7.6 µM
A/Henan/Jinshui/147/2007
  EC50: > 10 µM
A/Nebraska/1/2006
  EC50: > 10 µM
B/Lee/40
  EC50: > 10 µM
A/Hong Kong/8/68
  EC50: 0.15 µM
A/Puerto Rico/8/34
  EC50: > 10 µM
A/Georgia/17/2006
  EC50: > 10 µM
A/Missouri/3/2006
  EC50: 3.6 µM
A/Texas/12/2007
  EC50: 8.2 µM
A/Wisconsin/67/2005
  EC50: 0.16 µM
B/Memphis/20/1996--070
  EC50: 2.6 µM
A/Georgia/20/2006
  EC50: 4.3 µM
A/Swine/Iowa/15/30
  EC50: 1.8 µM
A/Victoria/3/75
  EC50: 4.1 µM
A/Cambodia0371/2007
  EC50: 2.1 µM
A/WS/33
  EC50: > 10 µM
A/Port Chalmers/1/73
  EC50: 0.67 µM
A/Virginia/01/2006
  EC50: 0.83 µM
B/Russia/69
  EC50: 3.1 µM
A/Aichi/2/68
  EC50: > 10 µM
A/South Dakota/6/2007
  EC50: 3.4 µM
A/St. Petersburg8/2006
  EC50: 6 µM
A/Equine/Miami/63
  EC50: 0.93 µM
